Measured values: patent publication US7700782B2, “Compounds 569” (AstraZeneca AB, priority 2007, dated 2010)
Structures can show the parent of a compound that is named as a salt.

Target: T1, Adrenergic β2 (Homo sapiens, UniProt P07550)
T1 construct: Adherent H292 cells were removed from tissue culture flasks; endogenous in cells; host or cells: H292 cells
Assay: Adrenergic β2 mediated cAMP production in H292 cells (AlphaScreen cAMP detection)
Format: cell-based
Conditions: Intrinsic Activity, fraction relative to the maximum activity determined for formoterol
Method: Adrenergic β2 Mediated cAMP Production
H292 cells were grown in 225 cm2 flasks incubator at 37° C., 5% CO2 in RPMI medium containing, 10% (v/v) FBS (foetal bovine serum) and 2 mM L-glutamine.
Adherent H292 cells were removed from tissue culture flasks by treatment with Accutase™ cell detachment solution for 15 minutes. Flasks were incubated for 15 minutes in a humidified incubator at 37° C., 5% CO2. Detached cells were re-suspended in RPMI media (containing 10% (v/v) FBS and 2 mM L-glutamine) at 0.05×10^6 cells per mL. 5000 cells in 100 μL were added to each well of a tissue-culture-treated 96-well plate and the cells incubated overnight in a humidified incubator at 37° C., 5% CO2. The culture media was removed and cells were washed twice with 100 μL assay buffer and replaced with 50 μL assay buffer (HBSS solution containing 10 mM HEPES pH 7.4 and 5 mM glucose). Cells were rested at room temperature for 20 minutes after which time 25 μL of rolipram (1.2 mM made up in assay buffer containing 2.4% (v/v) dimethylsulphoxide) was added. Cells were incubated with rolipram for 10 minutes after which time test compounds were added and the cells were incubated for 60 minutes at room temperature. The final rolipram concentration in the assay was 300 μM and final vehicle concentration was 1.6% (v/v) dimethylsulphoxide. The reaction was stopped by removing supernatants, washing once with 100 μL assay buffer and replacing with 50 μL lysis buffer. The cell monolayer was frozen at −80° C. for 30 minutes (or overnight).
The concentration of cAMP (cyclic adenosine monophosphate) in the cell lysate was determined using AlphaScreen™ methodology. The frozen cell plate was thawed for 20 minutes on a plate shaker then 10 μL of the cell lysate was transferred to a 96-well white plate. 40 μL of mixed AlphaScreen™ detection beads pre-incubated with biotinylated cAMP, was added to each well and the plate incubated at room temperature for 10 hours in the dark. The AlphaScreen™ signal was measured using an EnVision spectrophotometer (Perkin-Elmer Inc.) with the recommended manufacturer's settings. cAMP concentrations were determined by reference to a calibration curve determined in the same experiment using standard cAMP concentrations. Concentration response curves for agonists were constructed and data was fitted to a four parameter logistic equation to determine both the pEC50 and Intrinsic Activity. Intrinsic Activity was expressed as a fraction relative to the maximum activity determined for formoterol in each experiment.

T1 sequence (P07550 whole entry): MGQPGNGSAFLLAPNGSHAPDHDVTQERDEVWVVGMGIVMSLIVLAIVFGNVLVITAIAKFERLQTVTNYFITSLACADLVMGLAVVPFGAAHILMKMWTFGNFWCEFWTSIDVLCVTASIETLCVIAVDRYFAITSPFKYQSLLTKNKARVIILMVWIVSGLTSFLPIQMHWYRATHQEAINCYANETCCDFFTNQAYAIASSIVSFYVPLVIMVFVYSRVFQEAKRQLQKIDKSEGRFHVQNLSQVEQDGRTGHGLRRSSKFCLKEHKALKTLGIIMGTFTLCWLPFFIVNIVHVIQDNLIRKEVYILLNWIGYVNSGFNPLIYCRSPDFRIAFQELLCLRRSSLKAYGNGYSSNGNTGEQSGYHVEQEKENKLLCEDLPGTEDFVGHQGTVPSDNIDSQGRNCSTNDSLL

| β2 Int Act | Compound |
| --- | --- |
| 0.70 | CC(C)(Cc1ccccc1)NCCC(=O)N(CCNCCc1ccc(O)c2[nH]c(=O)sc12)C1CCCCC1 [Example 19, N-Cyclohexyl-N^3-(1,1-dimethyl-2-phenylethyl)-N-(2-{[2-(4-hydroxy-2-oxo-2,3-dihydro-1,3-benzothiazol-7-yl)ethyl]amino}ethyl)-β-alaninamide bis-trifluoroacetic acid salt] |
| 0.67 | CC(C)(CNCCC(=O)N(CCNCCc1ccc(O)c2[nH]c(=O)sc12)C1CCCC1)c1ccccc1 [Example 32, N-cyclopentyl-N-(2-{[2-(4-hydroxy-2-oxo-2,3-dihydro-1,3-benzothiazol-7-yl)ethyl]amino}ethyl)-N^3-(2-methyl-2-phenylpropyl)-β-alaninamide bis-trifluoroacetic acid salt] |
| 0.87 | O=C(CCNCCc1ccc(Cl)cc1)N(CCNCCc1ccc(O)c2[nH]c(=O)sc12)C1CCCC1 [Example 28, N^3-[2-(4-Chlorophenyl)ethyl]-N-cyclopentyl-N-(2-{[2-(4-hydroxy-2-oxo-2,3-dihydro-1,3-benzothiazol-7-yl)ethyl]amino}ethyl)-β-alaninamide bis-trifluoroacetic acid salt] |
| 0.59 | CC(C)(CO)CN(CCNCCc1ccc(O)c2[nH]c(=O)sc12)C(=O)CCNCCc1cccc(Cl)c1 [Example 66, N^3-[2-(3-Chlorophenyl)ethyl]-N^1-(3-hydroxy-2,2-dimethylpropyl)-N^1-(2-{[2-(4-hydroxy-2-oxo-2,3-dihydro-1,3-benzothiazol-7-yl)ethyl]amino}ethyl)-β-alaninamide bis-trifluoroacetic acid salt] |
| 0.70 | CCCC(CCC)N(CCNCCc1ccc(O)c2[nH]c(=O)sc12)C(=O)CCNCCc1ccc(F)cc1 [Example 64, N^3-[2-(4-Fluorophenyl)ethyl]-N^1-(2-{[2-(4-hydroxy-2-oxo-2,3-dihydro-1,3-benzothiazol-7-yl)ethyl]amino}ethyl)-N^1-(1-propylbutyl)-β-alaninamide bis-trifluoroacetic acid salt] |
| 0.91 | O=C(CCNCCc1cccc(O)c1)N(CCNCCc1ccc(O)c2[nH]c(=O)sc12)C1CCCCCC1 [Example 37, N-Cycloheptyl-N-(2-{[2-(4-hydroxy-2-oxo-2,3-dihydro-1,3-benzothiazol-7-yl)ethyl]amino}ethyl)-N^3-[2-(3-hydroxyphenyl)ethyl]-β-alaninamide bis-trifluoroacetic acid salt] |
| 0.65 | Cc1cccc(CCNCCC(=O)N(CCNCCc2ccc(O)c3[nH]c(=O)sc23)C2CCCCCC2)c1 [Example 85, N^1-Cycloheptyl-N^1-(2-{[2-(4-hydroxy-2-oxo-2,3-dihydro-1,3-benzothiazol-7-yl)ethyl]amino}ethyl)-N^3-[2-(3-methylphenyl)ethyl]-β-alaninamide bis-trifluoroacetic acid salt] |
| 0.82 | NS(=O)(=O)c1ccc(CCNCCC(=O)N(CCNCCc2ccc(O)c3[nH]c(=O)sc23)C2CCCCC2)cc1 [Example 69, N^3-{2-[4-(Aminosulfonyl)phenyl]ethyl}-N^1-cyclohexyl-N^1-(2-{[2-(4-hydroxy-2-oxo-2,3-dihydro-1,3-benzothiazol-7-yl)ethyl]amino}ethyl)-β-alaninamide bis-trifluoroacetic acid salt] |
| 0.71 | O=C(CCNCCc1cc(F)ccc1F)N(CCNCCc1ccc(O)c2[nH]c(=O)sc12)C1CCCCCC1 [Example 83, N^1-Cycloheptyl-N^3-[2-(2,5-difluorophenyl)ethyl]-N^1-(2-{[2-(4-hydroxy-2-oxo-2,3-dihydro-1,3-benzothiazol-7-yl)ethyl]amino}ethyl)-β-alaninamide bis-trifluoroacetic acid salt] |
| 0.85 | O=C(CCNCCc1ccccc1)N(CCNCCc1ccc(O)c2[nH]c(=O)sc12)CC12CC3CC(CC(C3)C1)C2 [Example 59, N^1-(1-Adamantylmethyl)-N^1-(2-{[2-(4-hydroxy-2-oxo-2,3-dihydro-1,3-benzothiazol-7-yl)ethyl]amino}ethyl)-N^3-(2-phenylethyl)-β-alaninamide bis-trifluoroacetic acid salt] |

Continued, compound first:

| Compound | β2 Int Act |
| --- | --- |
| O=C(CCNCCc1ccc(O)c(Cl)c1)N(CCNCCc1ccc(O)c2[nH]c(=O)sc12)C1CCCCC1 [Example 89, N^3-[2-(3-chloro-4-hydroxyphenyl)ethyl]-N^1-cyclohexyl-N^1-(2-{[2-(4-hydroxy-2-oxo-2,3-dihydro-1,3-benzothiazol-7-yl)ethyl]amino}ethyl)-β-alaninamide bis-trifluoroacetic acid salt] | 0.9 |
| O=C(CCNCCc1cccc(OC(F)F)c1)N(CCNCCc1ccc(O)c2[nH]c(=O)sc12)C1CCCCCC1 [Example 54, N^1-Cycloheptyl-N^3-{2-[3-(difluoromethoxy)phenyl]ethyl}-N^1-(2-{[2-(4-hydroxy-2-oxo-2,3-dihydro-1,3-benzothiazol-7-yl)ethyl]amino}ethyl)-β-alaninamide bis-trifluoroacetic acid salt] | 0.69 |
| O=C(CCNC[C@@H](O)c1ccccc1)N(CCNCCc1ccc(O)c2[nH]c(=O)sc12)C1CCCCC1 [Example 74, N^1-Cyclohexyl-N^1-(2-{[2-(4-hydroxy-2-oxo-2,3-dihydro-1,3-benzothiazol-7-yl)ethyl]amino}ethyl)-N^3-[(2S)-2-hydroxy-2-phenylethyl]-β-alaninamide bis-trifluoroacetic acid salt] | 0.79 |
| C[C@H](CNCCC(=O)N(CCNCCc1ccc(O)c2[nH]c(=O)sc12)C1CCCCC1)c1ccccc1 [Example 18, N-Cyclohexyl-N-(2-{[2-(4-hydroxy-2-oxo-2,3-dihydro-1,3-benzothiazol-7-yl)ethyl]amino}ethyl)-N^3-[(2S)-2-phenylpropyl]-β-alaninamide bis-trifluoroacetic acid salt] | 0.89 |
| CC(C)N(CCNCCc1ccc(O)c2[nH]c(=O)sc12)C(=O)CCNCCc1ccc(Cl)cc1 [Example 3, N^3-[2-(4-Chlorophenyl)ethyl]-N-(2-{[2-(4-hydroxy-2-oxo-2,3-dihydro-1,3-benzothiazol-7-yl)ethyl]amino}ethyl)-N-isopropyl-β-alaninamide bis-trifluoroacetic acid salt] | 0.34 |
| O=C(CCNCCc1ccccc1)N(CCNCCc1ccc(O)c2[nH]c(=O)sc12)C1CCC(F)(F)CC1 [Example 4, N-(4,4-Difluorocyclohexyl)-N-(2-{[2-(4-hydroxy-2-oxo-2,3-dihydro-1,3-benzothiazol-7-yl)ethyl]amino}ethyl)-N^3-(2-phenylethyl)-β-alaninamide bis-trifluoroacetic acid salt] | 0.79 |
| CC1(C)CCC(N(CCNCCc2ccc(O)c3[nH]c(=O)sc23)C(=O)CCNCCc2cccc(O)c2)CC1 [Example 91, N^1-(4,4-Dimethylcyclohexyl)-N^1-(2-{[2-(4-hydroxy-2-oxo-2,3-dihydro-1,3-benzothiazol-7-yl)ethyl]amino}ethyl)-N^3-[2-(3-hydroxyphenyl)ethyl]-β-alaninamide bis-trifluoroacetic acid salt] | 0.75 |
| O=C(CCNCCc1cccs1)N(CCNCCc1ccc(O)c2[nH]c(=O)sc12)C1CCCCC1 [Example 35, N-Cyclohexyl-N-(2-{[2-(4-hydroxy-2-oxo-2,3-dihydro-1,3-benzothiazol-7-yl)ethyl]amino}ethyl)-N^3-[2-(2-thienyl)ethyl]-β-alaninamide bis-trifluoroacetic acid salt] | 0.91 |
| O=C(CCNCCc1cccc(F)c1F)N(CCNCCc1ccc(O)c2[nH]c(=O)sc12)C1CCCCC1 [Example 81, N^1-Cyclohexyl-N^3-[2-(2,3-difluorophenyl)ethyl]-N^1-(2-{[2-(4-hydroxy-2-oxo-2,3-dihydro-1,3-benzothiazol-7-yl)ethyl]amino}ethyl)-β-alaninamide bis-trifluoroacetic acid salt] | 0.89 |
| CCCC(CCC)N(CCNCCc1ccc(O)c2[nH]c(=O)sc12)C(=O)CCNCCc1cccc(F)c1 [Example 63, N^3-[2-(3-Fluorophenyl)ethyl]-N^1-(2-{[2-(4-hydroxy-2-oxo-2,3-dihydro-1,3-benzothiazol-7-yl)ethyl]amino}ethyl)-N^1-(1-propylbutyl)-β-alaninamide bis-trifluoroacetic acid salt] | 0.93 |
| O=C(CCNCCc1cc(F)cc(F)c1)N(CCNCCc1ccc(O)c2[nH]c(=O)sc12)C1CCCCC1 [Example 78, N^1-Cyclohexyl-N^3-[2-(3,5-difluorophenyl)ethyl]-N^1-(2-{[2-(4-hydroxy-2-oxo-2,3-dihydro-1,3-benzothiazol-7-yl)ethyl]amino}ethyl)-β-alaninamide bis-trifluoroacetic acid salt] | 0.91 |
